From patent US20020111353A1, “Inhibitors of c-Jun N-terminal kinases (JNK) and other protein kinases” (priority 2000, published 2002) come the findings set out here.

Common to all, as to format: biochemical
The target of one experiment is T1, activated JNK3 (Homo sapiens, UniProt P53779).
T1 construct: One such construct encodes amino acid residues Ser40-Glu402 of JNK3α1 and is preceded by Met and Gly residues; Met-Gly (added initiation methionine and glycine, from the NcoI cloning site) (N); made in house; host or cells: E. coli BL21 (DE3)
T1 sequence (P53779 40-402): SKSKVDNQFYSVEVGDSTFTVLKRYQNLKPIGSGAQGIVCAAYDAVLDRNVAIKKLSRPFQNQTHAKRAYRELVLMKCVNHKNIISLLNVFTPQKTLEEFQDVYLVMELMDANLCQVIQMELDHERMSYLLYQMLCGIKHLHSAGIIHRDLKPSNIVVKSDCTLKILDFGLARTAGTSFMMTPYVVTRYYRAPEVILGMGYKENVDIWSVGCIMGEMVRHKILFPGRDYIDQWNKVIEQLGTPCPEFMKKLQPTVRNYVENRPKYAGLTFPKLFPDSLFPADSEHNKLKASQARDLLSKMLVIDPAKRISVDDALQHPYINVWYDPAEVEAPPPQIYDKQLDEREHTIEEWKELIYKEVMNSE
As to the kind of experiment: JNK3 inhibition, spectrophotometric coupled-enzyme assay. The following applies: for Ki: activated JNK3 10 nM, 10 μM ATP, 30° C., read-out: JNK3 (Ki rating); for p38/JNK3: ratio of p38 to JNK3 activity as a measure of selectivity. From the text:
A BLAST search of the EST database using the published JNK3α1 cDNA as a query identified an EST clone (#632588) that contained the entire coding sequence for human JNK3α1. Polymerase chain reactions (PCR) using pfu polymerase (Strategene) were used to introduce restriction sites into the CDNA for cloning into the pET-15B expression vector at the NcoI and BamHI sites. The protein was expressed in E. coli. Due to the poor solubility of the expressed full-length protein (Met 1-Gln 422), an N-terminally truncated protein starting at Ser residue at position 40 (Ser 40) was produced. This truncation corresponds to Ser 2 of JNK1 and JNK2 proteins, and is preceded by a methionine (initiation) and a glycine residue. The glycine residue was added in order to introduce an NcoI site for cloning into the expression vector. In addition, systematic C-terminal truncations were performed by PCR to identify a construct that give rise to diffraction-quality crystals. One such construct encodes amino acid residues Ser40-Glu402 of JNK3α1 and is preceded by Met and Gly residues.
Five mg of JNK3 was diluted to 0.5 mg/ml in 50 mM HEPES buffer, pH 7.5, containing 100 mM NaCl, 5 mM DTT, 20 mM MgCl2 and 1 mM ATP. GST-MKK7(DD) was added at a molar ratio of 1:2.5 GST-MKK7:JNK3. After incubation for 30 minutes at 25° C., the reaction mixture was concentrated 5-fold by ultrafiltration in a Centriprep-30 (Amicon, Beverly, Mass.), diluted to 10 ml and an additional 1 mM ATP added. This procedure was repeated three times to remove ADP and replenish ATP. The final addition of ATP was 5 mM and the mixture incubated overnight at 4° C.
The activated JNK3/GST-MKK7(DD) reaction mixture was exchanged into 50 mM HEPES buffer, pH 7.5, containing 5 mM DTT and 5% glycerol (w/v) by dialysis or ultrafiltration. The reaction mixture was adjusted to 1.1 M potassium phosphate, pH 7.5, and purified by hydrophobic interaction chromatography (at 25° C.) using a Rainin Hydropore column. […] Activated JNK3 (i.e. doubly phosphorylated JNK3) was stored at −70° C. at 0.25-1 mg/ml.
(§1) Compounds were assayed for the inhibition of JNK3 by a spectrophotometric coupled-enzyme assay. In this assay, a fixed concentration of activated JNK3 (10 nM) was incubated with various concentrations of a potential inhibitor dissolved in DMSO for 10 minutes at 30° C. in a buffer containing 0.1 M HEPES buffer, pH 7.5, containing 10 mM MgCl2, 2.5 mM phosphoenolpyruvate, 200 μM NADH, 30 μg/mL pyruvate kinase, 10 μg/mL lactate dehydrogenase, and 200 μM EGF receptor peptide. The EGF receptor peptide has the sequence […], and is a phosphoryl acceptor in the JNK3-catalyzed kinase reaction. The reaction was initiated by the addition of 10 μM ATP and the assay plate is inserted into the spectrophotometer's assay plate compartment that was maintained at 30° C. The decrease of absorbance at 340 nm was monitored as a function of time. The rate data as a function of inhibitor concentration was fitted to competitive inhibition kinetic model to determine the Ki.

Another experiment has as its target JNK1 (Homo sapiens, UniProt P45983). As to the kind of experiment: JNK1 inhibition assay (spectrophotometric coupled-enzyme assay, analogous to JNK3). To be noted: read-out: JNK1 (Ki rating). The method, then: as §1
(§2) The JNK1 and JNK2 assays were performed in an analogous manner.

Another experiment concerns the target activated p38 (Homo sapiens, UniProt Q16539). As to the kind of experiment: p38 inhibition assay. The following applies: read-out: p38 (Ki rating). The method, then:
Two splice variants of human p38 kinase, CSBP1 and CSBP2, have been identified. […] The polymerase chain reaction product was cloned into the pET-15b vector (Novagen). The baculovirus transfer vector, pVL-(His)6-p38 was constructed by subcloning a XbaI-BamHI fragment of pET15b-(His)6-p38 into the complementary sites in plasmid pVL1392 (Pharmingen).
p38 was activated by combining 0.5 mg/ml p38 with 0.005 mg/ml DD-double mutant MKK6 in Buffer B+10 mM MgCl2, 2 mM ATP, 0.2 mM Na2VO4 for 30 minutes at 20° C. The activation mixture was then loaded onto a 1.0×10 cm MonoQ column (Pharmacia) and eluted with a linear 20 column volume gradient to 1.0 M NaCl in Buffer B. The activated p38 eluted after the ADP and ATP. The activated p38 peak was pooled and dialyzed against buffer B+0.2 mM Na2VO4 to remove the NaCl. The dialyzed protein was adjusted to 1.1M potassium phosphate by addition of a 4.0M stock solution and loaded onto a 1.0×10 cm HIC (Rainin Hydropore) column previously equilibrated in Buffer D (10% glycerol, 20 mM β-glycerophosphate, 2.0 mM DTT) +1.1MK2HPO4. The protein was eluted with a 20 column volume linear gradient to Buffer D+50 mM K2HPO4. The double phosphorylated p38 eluted as the main peak and was pooled for dialysis against Buffer B+0.2 mM Na2VO4 The activated p38 was stored at −70° C.
This assay is carried out in the presence of 10 mM MgCl2 and 100 mM HEPES buffer at pH 7.6. For a typical IC50 determination, a stock solution is prepared containing all of the above components and activated p38 (5 nM). The stock solution is aliquotted into vials. A fixed volume of DMSO or inhibitor in DMSO (final concentration of DMSO in reaction is 5%) is introduced to each vial, mixed and incubated for 15 minutes at room temperature. EGF receptor peptide, […], a phosphoryl acceptor in p38-catalyzed kinase reaction, is added to each vial to a final concentration of 200 μM. The kinase reaction is initiated with ATP (100 μM) and the vials are incubated at 30° C. After 30 minutes, the reactions are quenched with equal volume of 10% trifluoroacetic acid (TFA).
The phosphorylated peptide is quantified by HPLC analysis. Separation of phosphorylated peptide from the unphosphorylated peptide is achieved on a reverse phase column (Deltapak, 5 μm, C18 100D, part no. 011795) with a binary gradient of water and acteonitrile, each containing 0.1% TFA. IC50 (concentration of inhibitor yielding 50% inhibition) is determined by plotting the % activity remaining against inhibitor concentration.
This assay is carried out in the presence of 10 mM MgCl2, 25 mM β-glycerophosphate, 10% glycerol and 100 mM HEPES buffer at pH 7.6. For a typical Ki determination, the Km for ATP in the ATPase activity of activated p38 reaction is determined in the absence of inhibitor and in the presence of two concentrations of inhibitor. Ki is determined from the rate data as a function of inhibitor and ATP concentrations. A stock solution is prepared containing all of the above components and activated p38 (60 nM). The stock solution is aliquotted into vials. A fixed volume of DMSO or inhibitor in DMSO (final concentration of DMSO in reaction is 2.5%) is introduced to each vial, mixed and incubated for 15 minutes at room temperature. The reaction is initiated by adding various concentrations of ATP and then incubated at 30° C. After 30 minutes, the reactions are quenched with 50 μl of EDTA (0.1 M, final concentration), pH 8.0. The product of p38 ATPase activity, ADP, is quantified by HPLC analysis.
Separation of ADP from ATP is achieved on a reversed phase column (Supelcosil, LC-18, 3 μm, part no. 5-8985) using a binary solvent gradient of following composition: Solvent A—0.1 M phosphate buffer containing 8 mM tetrabutylammonium hydrogen sulfate (Sigma Chemical Co., catalogue no. T-7158), Solvent B—Solvent A with 30% methanol.

Another experiment addresses JNK2 (Homo sapiens, UniProt P45984). Kind of experiment: JNK2 inhibition assay (spectrophotometric coupled-enzyme assay, analogous to JNK3). The following applies: read-out: JNK2 (Ki rating). How it is done: as §1, §2

The Ki is a measure of affinity in units of concentration, obtained from inhibition or displacement.

JNK2, sequence (P45984 whole entry, species assumed): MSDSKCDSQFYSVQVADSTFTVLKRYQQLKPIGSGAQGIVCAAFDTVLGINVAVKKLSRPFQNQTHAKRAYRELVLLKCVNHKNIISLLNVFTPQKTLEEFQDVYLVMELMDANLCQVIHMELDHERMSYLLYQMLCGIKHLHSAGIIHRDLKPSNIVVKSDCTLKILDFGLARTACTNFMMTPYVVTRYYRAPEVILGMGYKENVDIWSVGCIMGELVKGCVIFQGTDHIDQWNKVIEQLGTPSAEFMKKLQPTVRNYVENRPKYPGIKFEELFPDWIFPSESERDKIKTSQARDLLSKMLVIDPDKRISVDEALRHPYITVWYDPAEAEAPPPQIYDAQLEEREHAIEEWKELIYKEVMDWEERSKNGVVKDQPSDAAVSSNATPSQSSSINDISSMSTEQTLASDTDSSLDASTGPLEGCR
activated p38, sequence (Q16539 whole entry, the tested form may be a part, canonical isoform): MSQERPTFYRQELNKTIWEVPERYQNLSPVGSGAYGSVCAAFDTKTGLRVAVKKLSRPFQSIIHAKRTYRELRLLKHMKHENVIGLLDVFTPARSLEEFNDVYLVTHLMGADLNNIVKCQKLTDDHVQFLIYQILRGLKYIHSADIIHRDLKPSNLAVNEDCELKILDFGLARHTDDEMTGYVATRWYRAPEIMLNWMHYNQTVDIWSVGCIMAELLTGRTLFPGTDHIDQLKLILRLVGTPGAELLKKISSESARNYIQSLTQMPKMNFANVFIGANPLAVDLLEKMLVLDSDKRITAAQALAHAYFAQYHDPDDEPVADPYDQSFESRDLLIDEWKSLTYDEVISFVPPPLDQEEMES
JNK1, sequence (P45983 whole entry, species assumed): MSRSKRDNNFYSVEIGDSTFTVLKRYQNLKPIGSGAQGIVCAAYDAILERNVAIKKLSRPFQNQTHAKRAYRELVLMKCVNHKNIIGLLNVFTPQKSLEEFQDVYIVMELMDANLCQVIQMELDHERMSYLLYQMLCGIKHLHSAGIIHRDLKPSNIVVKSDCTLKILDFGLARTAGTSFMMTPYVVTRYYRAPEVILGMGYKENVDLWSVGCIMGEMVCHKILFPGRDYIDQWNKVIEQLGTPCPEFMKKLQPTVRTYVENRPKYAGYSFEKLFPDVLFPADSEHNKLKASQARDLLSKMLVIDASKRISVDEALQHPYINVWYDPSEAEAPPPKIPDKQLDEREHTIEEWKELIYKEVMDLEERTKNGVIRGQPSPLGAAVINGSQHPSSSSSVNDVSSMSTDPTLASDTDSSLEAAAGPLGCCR

Take `c1ccc(-n2cc(-c3ccnc(NC4CCCCC4)n3)cn2)cc1` [II-67]: the Ki at activated JNK3 is under 2 µM; on JNK1, under 2 µM; at activated p38 it was over 10 µM; at JNK2, under 2 µM. The p38/JNK3 on activated JNK3 was over 10.
`COc1ccc(-n2cc(-c3ccnc(NC4CCCCC4)n3)cn2)cc1` [II-70]: the Ki is under 2 µM on activated JNK3, 2 to 10 µM on JNK1, over 10 µM on activated p38 and 2 to 10 µM on JNK2. For the same compound, the p38/JNK3 entry at activated JNK3 is reported as “≧10”.
Turning to `Cc1c(-c2ccnc(Nc3ccc(F)cc3)n2)cnn1-c1ccccc1` [II-100], the Ki at activated JNK3 was under 2 µM; at JNK1 it was under 2 µM; at activated p38, over 10 µM; on JNK2, under 2 µM. The p38/JNK3 at activated JNK3 is on record as over 10.
For the compound `Cc1c(-c2ccnc(Nc3ccc(Cl)cc3)n2)cnn1-c1ccccc1` [II-101], the Ki at activated JNK3 is under 2 µM; on JNK1, under 2 µM; on activated p38, over 10 µM; at JNK2, under 2 µM. Moreover, the p38/JNK3 at activated JNK3 is recorded as over 10.
For the compound `c1ccc(Cn2cc(-c3ccnc(NC4CCCCC4)n3)cn2)cc1` [II-65], the Ki at activated JNK3 is under 2 µM; on JNK1, under 2 µM; at activated p38, over 10 µM; at JNK2, under 2 µM. For the same compound, the p38/JNK3 at activated JNK3 was over 10.
Regarding `Clc1ccc(Cl)c(-n2cc(-c3ccnc(NC4CCCCC4)n3)cn2)c1` [II-71], the inhibitory constant (Ki) was under 2 µM on activated JNK3, under 2 µM at JNK1, over 10 µM on activated p38 and under 2 µM on JNK2. The p38/JNK3 on activated JNK3 is over 10.
For the compound `Fc1ccc(-n2cc(-c3ccnc(NC4CCCCC4)n3)cn2)c(F)c1` [II-72, Cyclohexyl-{4-[l-(2,4-difluoro-phenyl)-1H-pyrazol-4-yl]-pyrimidin-2-yl}-amine], the Ki at activated JNK3 is under 2 µM; on JNK1 it was under 2 µM; at activated p38 it was over 10 µM; at JNK2, under 2 µM. For the same compound, on activated JNK3, the p38/JNK3 was over 10.
Regarding `Cc1c(-c2ccnc(Nc3ccc([N+](=O)[O-])cc3)n2)cnn1-c1ccccc1` [II-102], the Ki at activated JNK3 was under 2 µM; at JNK1, under 2 µM; at activated p38 it was over 10 µM; on JNK2 it was under 2 µM. Also, the p38/JNK3 at activated JNK3 is over 10.
